The compounds below were run against human adenosine A2a receptor (Homo sapiens (Human), UniProt P29274) (assay: A2a receptor binding affinity, [3H]-NECA radioligand binding test). Settings: [3H]-NECA 37 nM; membrane from HEK-293 cells transfected with human adenosine A2a receptor.
Chain of human adenosine A2a receptor (P29274 whole entry): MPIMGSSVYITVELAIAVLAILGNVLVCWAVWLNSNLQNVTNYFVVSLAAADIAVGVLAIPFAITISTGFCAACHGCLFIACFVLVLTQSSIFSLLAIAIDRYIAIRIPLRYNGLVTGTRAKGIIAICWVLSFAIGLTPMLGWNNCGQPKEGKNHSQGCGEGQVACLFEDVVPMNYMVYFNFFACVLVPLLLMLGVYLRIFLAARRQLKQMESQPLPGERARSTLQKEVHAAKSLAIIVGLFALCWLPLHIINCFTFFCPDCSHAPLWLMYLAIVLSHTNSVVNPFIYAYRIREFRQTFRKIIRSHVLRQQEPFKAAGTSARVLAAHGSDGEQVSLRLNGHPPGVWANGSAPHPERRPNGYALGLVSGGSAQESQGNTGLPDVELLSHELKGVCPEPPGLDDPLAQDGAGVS
How it was run: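 Membranes from HEK-293 cells expressing human A2a receptor were incubated with [3H]-NECA (final 37 nM) and compound for 1 h at room temperature in 50 mM Tris, 10 mM MgCl2, 1 mM EDTA, pH 7.4. Bound ligand was filtered on PEI-coated plates and counted by scintillation to derive IC50 (μM).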
`Nc1nc(N2CCC[C@H]2C(=O)N2CCN(C(=O)c3ccc(F)cc3F)CC2)nc2nc(-c3ccco3)nn12` [Example 64, (4-((7-amino-2-(furan-2-yl)-[1,2,4]triazolo[1,5-a][1,3,5]triazin-5-yl)-L-prolyl)piperazin-1-yl)(2,4-difluorophenyl)methanone] showed an IC50 of 14 nM. Work on `CC[C@H](Nc1nc(N)n2nc(-c3ccco3)nc2n1)C(=O)N1CCN(CC(F)(F)C(F)F)CC1` [Example 358, (S)-2-((7-amino-2-(furan-2-yl)-[1,2,4]triazolo[1,5-a][1,3,5]triazin-5-yl)amino)-1-(4-(2,2,3,3-tetrafluoropropyl)piperazin-1-yl)butan-1-one] yielded an IC50 of 10 nM. `Nc1nc(N2CCC[C@H]2C(=O)N2CCN(C(=O)C3(C(F)(F)F)CCC3)CC2)nc2nc(-c3ccco3)nn12` [Example 75] gave an IC50 of 9 nM. In the case of `CCCCN1CCN(C(=O)[C@@H]2CCCN2c2nc(N)n3nc(-c4ccco4)nc3n2)CC1=O` [Example 247, 4-((7-amino-2-(furan-2-yl)-[1,2,4]triazolo[1,5-a][1,3,5]triazin-5-yl)-L-prolyl)-1-butylpiperazin-2-one], the IC50 is reported as 2 nM. For `CCCC[C@H](Nc1nc(N)n2nc(-c3ccco3)nc2n1)C(=O)N1CCN(c2ccc(F)cc2F)CC1` [Example 164, (S)-2-((7-amino-2-(furan-2-yl)-[1,2,4]triazolo[1,5-a][1,3,5]triazin-5-yl)amino)-1-(4-(2,4-difluorophenyl)piperazin-1-yl)hexan-1-one], the IC50 was 0.3 nM. For `Nc1nc(N2CCC[C@H]2C(=O)N2CCC(C(=O)NCc3ccccc3)CC2)nc2nc(-c3ccco3)nn12` [Example 81, 1-((7-amino-2-(furan-2-yl)-[1,2,4]triazolo[1,5-a][1,3,5]triazin-5-yl)-L-prolyl)-N-benzylpiperidin-4-carboxamide], the IC50 was 8 nM. Compound `CC(C)C1CCC(N2CCN(C(=O)[C@@H]3CCCN3c3nc(N)n4nc(-c5ccco5)nc4n3)CC2)CC1` (stereo partly drawn) [Example 153, (S)-(1-(7-amino-2-(furan-2-yl)-[1,2,4]triazolo[1,5-a][1,3,5]triazin-5-yl)pyrrolidin-2-yl)(4-(4-isopropylcyclohexyl)piperazin-1-yl)methanone] has an IC50 of 12 nM. Compound `Nc1nc(N2CCC[C@H]2C(=O)N2CCN(CC(F)F)CC23CC3)nc2nc(-c3ccco3)nn12` [Example 341, (S)-(1-(7-amino-2-(furan-2-yl)-[1,2,4]triazolo[1,5-a][1,3,5]triazin-5-yl)pyrrolidin-2-yl)(7-(2,2-difluoroethyl)-4,7-diazaspiro[2.5]octan-4-yl)methanone] has an IC50 of 28 nM. Compound `CCC(F)(F)CN1CCN(C(=O)[C@@H]2CCCN2c2nc(N)n3nc(-c4ccco4)nc3n2)CC1` [Example 225, (S)-(1-(7-amino-2-(furan-2-yl)-[1,2,4]triazolo[1,5-a][1,3,5]triazin-5-yl)pyrrolidin-2-yl)(4-(2,2-difluorobutyl)piperazin-1-yl)methanone] has an IC50 of 2 nM. In the case of `Nc1nc(N2CCC[C@H]2C(=O)N2CCN(c3ccc(C(F)(F)F)cc3F)CC2)nc2nc(-c3ccco3)nn12` [Example 149, (S)-(1-(7-amino-2-(furan-2-yl)-[1,2,4]triazolo[1,5-a][1,3,5]triazin-5-yl)pyrrolidin-2-yl)(4-(2-fluoro-4-(trifluoromethyl)phenyl)piperazin-1-yl)methanone], the IC50 is reported as 0.5 nM. With `Nc1nc(N2CCC[C@H]2C(=O)N2CCN(Cc3ccccc3)CC2)nc2nc(-c3nccs3)nn12` [Example 193, (S)-(1-(7-amino-2-(thiazol-2-yl)-[1,2,4]triazolo[1,5-a][1,3,5]triazin-5-yl)pyrrolidin-2-yl)(4-benzylpiperazin-1-yl)methanone] the IC50 was 10 nM. `Nc1nc(N2CCC[C@H]2C(=O)N2CCN(C(=O)CO)CC2)nc2nc(-c3ccco3)nn12` [Example 237, 1-(4-((7-amino-2-(furan-2-yl)-[1,2,4]triazolo[1,5-a][1,3,5]triazin-5-yl)-L-prolyl)piperazin-1-yl)-2-hydroxyethan-1-one] gave an IC50 of 8 nM. `Cc1ccc(-c2nc3nc(N4CCC[C@H]4C(=O)N4CCN(c5ccc(F)cc5F)CC4)nc(N)n3n2)o1` [Example 87, (S)-(1-(7-amino-2-(5-methylfuran-2-yl)-[1,2,4]triazolo[1,5-a][1,3,5]triazin-5-yl)pyrrolidin-2-yl)(4-(2,4-difluorophenyl)piperazin-1-yl)methanone] showed an IC50 of 1 nM. For `Cc1ccc(-c2nc3nc(N4CCC[C@H]4C(=O)N4CCN(CC(F)(F)C(F)F)CC4)nc(N)n3n2)o1` [Example 298, (S)-(1-(7-amino-2-(5-methylfuran-2-yl)-[1,2,4]triazolo[1,5-a][1,3,5]triazin-5-yl)pyrrolidin-2-yl)(4-(2,2,3,3-tetrafluoropropyl)piperazin-1-yl) methanone], the IC50 was 3 nM. Work on `Nc1nc(N[C@@H](CN2CCOCC2)C(=O)N2CCN(c3ccc(F)cc3F)CC2)nc2nc(-c3ccco3)nn12` [Example 273] yielded an IC50 of 20 nM. For `Nc1nc(N[C@@H](Cc2ccccc2)C(=O)N2CCN(Cc3cccc(F)c3)CC2)nc2nc(-c3ccco3)nn12` [Example 17, (S)-2-((7-amino-2-(furan-2-yl)-[1,2,4]triazolo[1,5-a][1,3,5]triazin-5-yl)amino)-1-(4-(3-fluorobenzyl)piperazin-1-yl)-3-phenylpropan-1-one], the IC50 was 0.135 nM. `CC(F)(F)CN1CC2(CCN(C(=O)[C@@H]3CCCN3c3nc(N)n4nc(-c5ccco5)nc4n3)CC2)C1` [Example 364, (S)-(1-(7-amino-2-(furan-2-yl)-[1,2,4]triazolo[1,5-a][1,3,5]triazin-5-yl)pyrrolidin-2-yl)(2-(2,2-difluoropropyl)-2,7-diazaspiro[3.5]nonan-7-yl)methanone] showed an IC50 of 12 nM. For `Cc1ccc(-c2nc3nc(N4CC[C@H]4C(=O)N4CCN(CC(F)(F)C(F)(F)F)CC4)nc(N)n3n2)o1` [Example 313, (S)-(1-(7-amino-2-(5-methylfuran-2-yl)-[1,2,4]triazolo[1,5-a][1,3,5]triazin-5-yl)azetidin-2-yl)(4-(2,2,3,3,3-pentafluoropropyl)piperazin-1-yl)methanone], the IC50 was 5 nM. `C[C@H](Nc1nc(N)c2nc(-c3ccco3)sc2n1)C(=O)N1CCN(C(=O)CC(C)(C)O)CC1` [Example 340, 1-(4-((7-amino-2-(furan-2-yl)thiazolo[5,4-d]pyrimidin-5-yl)-L-alanyl)piperazin-1-yl)-3-hydroxy-3-methylbutan-1-one] was tested, and the IC50 was 74 nM. For `CCCCN1CCN(C(=O)[C@@H]2CCN2c2nc(N)n3nc(-c4ccco4)nc3n2)CC1` [Example 111, (S)-(1-(7-amino-2-(furan-2-yl)-[1,2,4]triazolo[1,5-a][1,3,5]triazin-5-yl)azetidin-2-yl)(4-butylpiperazin-1-yl)methanone], the IC50 was 8 nM. In the case of `Nc1nc(N2CC[C@H]2C(=O)N2CCN(CCCC(F)(F)F)CC2)nc2nc(-c3ccco3)nn12` [Example 264, (S)-(1-(7-amino-2-(furan-2-yl)-[1,2,4]triazolo[1,5-a][1,3,5]triazin-5-yl)azetidin-2-yl)(4-(4,4,4-trifluorobutyl)piperazin-1-yl)methanone], the IC50 is reported as 10 nM. `CC(C)(O)CC(=O)N1CCC(C2CCN(C(=O)[C@@H]3CCCN3c3nc(N)n4nc(-c5ccco5)nc4n3)CC2)CC1` [Example 290, 1-(1′-((7-amino-2-(furan-2-yl)-[1,2,4]triazolo[1,5-a][1,3,5]triazin-5-yl)-L-prolyl)-[4,4′-bipiperidin]-1-yl)-3-hydroxy-3-methylbutan-1-one] showed an IC50 of 2 nM. Compound `Cc1ccc(-c2nc3nc(N4CCC[C@H]4C(=O)N4CCN(CC(F)(F)F)CC4)nc(N)n3n2)o1` [Example 89, (S)-(1-(7-amino-2-(5-methylfuran-2-yl)-[1,2,4]triazolo[1,5-a][1,3,5]triazin-5-yl)pyrrolidin-2-yl)(4-(2,2,2-trifluoroethyl)piperazin-1-yl)methanone] has an IC50 of 17 nM. With `CC(C)[C@H](Nc1nc(N)n2nc(-c3ccco3)nc2n1)C(=O)N1CCN(CC(F)(F)F)CC1` [Example 144, (S)-2-((7-amino-2-(furan-2-yl)-[1,2,4]triazolo[1,5-a][1,3,5]triazin-5-yl)amino)-3-methyl-1-(4-(2,2,2-trifluoroethyl)piperazin-1-yl)butan-1-one] the IC50 was 14 nM. For `C[C@H](Nc1nc(N)n2nc(-c3ccco3)nc2n1)C(=O)N1CCN(CC(F)(F)F)CC1` [Example 25, (S)-2-((7-amino-2-(furan-2-yl)-[1,2,4]triazolo[1,5-a][1,3,5]triazin-5-yl)amino)-1-(4-(2,2,2-trifluoroethyl)piperazin-1-yl)propan-1-one], the IC50 was 10 nM. With `CN(C(=O)C1CCN(C(=O)[C@@H]2CCCN2c2nc(N)n3nc(-c4ccco4)nc3n2)CC1)c1ccccc1` [Example 133, 1-((7-amino-2-(furan-2-yl)-[1,2,4]triazolo[1,5-a][1,3,5]triazin-5-yl)-L-prolyl)-N-methyl-N-phenylpiperidin-4-carboxamide] the IC50 was 11 nM. With `Nc1nc(N[C@H](C(=O)N2CCN(CC(F)(F)C(F)F)CC2)C2CC2)nc2nc(-c3ccco3)nn12` [Example 359, (S)-2-((7-amino-2-(furan-2-yl)-[1,2,4]triazolo [1,5-a][1,3,5]triazin-5-yl)amino)-2-cyclopropyl-1-(4-(2,2,3,3-tetrafluoropropyl)piperazin-1-yl)ethan-1-one] the IC50 was 5 nM. For `COc1cccc(C(=O)N2CCN(C(=O)[C@@H]3CCCN3c3nc(N)n4nc(-c5ccco5)nc4n3)CC2)c1` [Example 63], the IC50 was 1 nM. Work on `Cn1cc(N2CCN(C(=O)[C@@H]3CCCN3c3nc(N)n4nc(-c5ccco5)nc4n3)CC2)cn1` [Example 321, (S)-(1-(7-amino-2-(furan-2-yl)-[1,2,4]triazolo[1,5-a][1,3,5]triazin-5-yl)pyrrolidin-2-yl)(4-(1-methyl-1H-pyrazol-4-yl)piperazin-1-yl)methanone] yielded an IC50 of 2 nM. `CC(F)(F)CN1CCN(C(=O)[C@@H](Nc2nc(N)n3nc(-c4ccco4)nc3n2)C2CC2)CC1` [Example 357, (S)-2-((7-amino-2-(furan-2-yl)-[1,2,4]triazolo[1,5-a][1,3,5]triazin-5-yl)amino)-2-cyclopropyl-1-(4-(2,2-difluoropropyl)piperazin-1-yl)ethan-1-one] gave an IC50 of 9 nM.
